{"source": "patent US12508306B2", "about": "“Compositions and methods of use thereof for treatment of metabolic diseases and related disorders” (Washington University, priority 2018, dated 2025)", "molecules": {"B1": {"name": "human arginase 1: human arginase 1 enzyme (protein, UniProt P05089 1-322, looked up)", "Arginase-1": "MSAKSRTIGIIGAPFSKGQPRGGVEEGPTVLRKAGLLEKLKEQECDVKDYGDLPFADIPNDSPFQIVKNPRSVGKASEQLAGKVAEVKKNGRISLVLGGDHSLAIGSISGHARVHPDLGVIWVDAHTDINTPLTTTSGNLHGQPVSFLLKELKGKIPDVPGFSWVTPCISAKDIVYIGLRDVDPGEHYILKTLGIKYFSMTEVDRLGIGKVMEETLSYLLGRKKRPIHLSFDVDGLDPSFTPATGTPVVGGLTYREGLYITEEIYKTGLLSGLDIMEVNPSLGKTPEEVTRTVNTAVAITLACFGLAREGNHKPIDYLNPPK"}}, "key": {"Arg2 [1]": {"test_system": "Arg2", "experiment": "Arg2 gene expression in cultured primary hepatocytes (RNA-seq, qPCR)", "format": "cell-based, murine", "text": "AML12 cells (CRL-2254) were purchased directly from the American Type Culture Collection (ATCC) and propagated and maintained precisely per manufacturer specification. Primary hepatocyte cell isolation, culture and treatment Primary murine hepatocytes obtained from WT mice were isolated^24,25,31 and cultured and maintained in regular DMEM growth media (Sigma, #D5796) containing 10% FBS. For in vitro starvation experiments, “starved” media contained 1 g/L glucose and 0:5% FBS was used. Cultures were lysed in Trizol and subjected to downstream analysis. In vitro genetic knockdown was achieved via siRNA transfection using Lipofectamine 3000 from Invitrogen (L3000015). Trehalose was obtained from Sigma Aldrich (St. Louis, MO) and was >97% purity by HPLC. Three percent trehalose water (w/v) fed ad libitum was used in all in vivo experiments.\n(§1) Total RNA was prepared by homogenizing snap-frozen livers or cultured hepatocytes in Trizol reagent (Invitrogen #15596026) according to the manufacturer's protocol. cDNA was prepared using Qiagen Quantitect reverse transcriptase kit (Qiagen #205310). Real-time qPCR was performed with Step-One Plus Real-Time PCR System (Applied Biosystems) using SYBR Green master Mix Reagent (Applied Biosystems) and specific primer pairs. Relative gene expression was calculated by a comparative method using values normalized to the expression of an internal control gene."}, "Arg2 [2]": {"test_system": "Arg2", "experiment": "Hepatic Arg2 expression by qPCR and immunoblot in mice subjected to trehalose feeding", "format": "in vivo", "conditions": "mice fed 3% trehalose water ad libitum, 5 days", "text": "AML12 cells (CRL-2254) were purchased directly from the American Type Culture Collection (ATCC) and propagated and maintained precisely per manufacturer specification. Primary hepatocyte cell isolation, culture and treatment Primary murine hepatocytes obtained from WT mice were isolated^24,25,31 and cultured and maintained in regular DMEM growth media (Sigma, #D5796) containing 10% FBS. For in vitro starvation experiments, “starved” media contained 1 g/L glucose and 0:5% FBS was used. Cultures were lysed in Trizol and subjected to downstream analysis. In vitro genetic knockdown was achieved via siRNA transfection using Lipofectamine 3000 from Invitrogen (L3000015). […]\nas §1, with “Real-time qPCR was performed with Step-One Plus Real-Time PCR System (Applied Biosystems) using SYBR Green master Mix Reagent (Applied Biosystems) and specific primer pairs.” left out\nTissues were homogenized in RIPA buffer supplemented with protease and phosphatase inhibitors (Thermo Scientific). […] Protein concentration was determined by BCA Assay Kit (Thermo Scientific) and was adjusted to 2 mg/mL. […] Protein expression levels were quantified with Image Lab software and normalized to the levels of β-actin or GAPDH."}, "[3]": {"conditions": "read-out: Km for arginine; cited from earlier work"}}, "data": [{"molecule": "OCC1OC(OC2OC(CO)C(O)C(O)C2O)C(O)C(O)C1O", "note": "(centres unmarked) [Lactotrehalose, lactotrehalose]", "values": [{"measurement": "Arg2 expression compared with native trehalose at equivalent doses", "setting": "Arg2 [1]; primary hepatocytes, 10 mM and 100 mM", "value": "significantly enhanced"}]}, {"molecule": "OC[C@H]1O[C@H](O[C@H]2O[C@H](CO)[C@@H](O)[C@H](O)[C@H]2O)[C@H](O)[C@@H](O)[C@@H]1O", "note": "[trehalose]", "values": [{"measurement": "hepatic Arg2 mRNA and protein", "setting": "Arg2 [2]", "value": "induced Arg2 mRNA and protein"}, {"measurement": "Arg2 induction by qPCR and immunoblot", "setting": "Arg2 [1]; primary hepatocytes, 1 mM, 10 mM, and 100 mM, within 24 h", "value": "rapid, dose-dependent, cell autonomous Arg2 induction"}, {"measurement": "Arg2 expression by RNA-seq", "setting": "Arg2 [1]; trehalose-treated primary hepatocytes relative to untreated hepatocytes", "value": "among the most highly upregulated genes"}]}, {"molecule": "B1", "values": [{"measurement": "Km", "setting": "[3]", "value": "~45", "unit": "mM"}]}]}
